# Patent US8158792B2, “Spiropiperidines for use as tryptase inhibitors” (Janssen Pharmaceutica N.V., priority 2007, dated 2012)
# Molecular target: human lung tryptase
# Assay: β-Tryptase In-Vitro Enzyme Assay
# Format: biochemical
# Details: human lung tryptase 1 nM, substrate H-D-HHT-Ala-Arg-pNa 500 μM, pH 7.4, room temperature
# Protocol: The β-tryptase assay was conducted with human lung tryptase (Cortex Biochem #CP3033) in an aqueous buffer (10 mM Tris, 10 mM Hepes, 150 mM NaCl, 0.1% PEG 8000, pH 7.4) using the chromogenic substrate H-D-HHT-Ala-Arg-pNa. […] Percent inhibition was calculated by comparing the initial reaction velocity of samples without inhibitor to those with inhibitor. The initial reaction velocities were analyzed using Microsoft Excel.
row,Compound,IC50
1,"CN(C)c1cccc(C(=O)N2CCC3(CC2)COc2ccc(CN)cc23)c1 [Cpd 56, 1-(3-dimethylamino-phenyl)carbonyl-5′-aminomethyl-spiro[piperidine-4,3′-(2H)-benzo[b]furan]]",190 nM
2,"CSc1cccc(C(=O)N2CCC3(CC2)COc2ccc(CN)cc23)c1 [Cpd 57, 1-(3-methylthio-phenyl)carbonyl-5′-aminomethyl-spiro[piperidine-4,3′-(2H)-benzo[b]furan]]",180 nM
3,"COC(=O)c1ccc(C(=O)N2CCC3(CC2)COc2ccc(CN)cc23)cc1 [Cpd 58, 1-(4-methoxycarbonyl-phenyl)carbonyl-5′-aminomethyl-spiro[piperidine-4,3′-(2H)-benzo[b]furan]]",710 nM
4,"NCc1ccc2c(c1)C1(CCN(C(=O)c3ccc(Br)cc3)CC1)CO2 [Cpd 59, 1-(4-bromo-phenyl)carbonyl-5′-aminomethyl-spiro[piperidine-4,3′-(2H)-benzo[b]furan]]",360 nM
5,"NCc1ccc2c(c1)C1(CCN(C(=O)c3cccc(OC(F)(F)F)c3)CC1)CO2 [Cpd 60, 1-(3-trifluoromethoxy-phenyl)carbonyl-5′-aminomethyl-spiro[piperidine-4,3′-(2H)-benzo[b]furan]]",2100 nM
6,"NCc1ccc2c(c1)C1(CCN(C(=O)c3ccc(OC(F)(F)F)cc3)CC1)CO2 [Cpd 61, 1-(4-trifluoromethoxy-phenyl)carbonyl-5′-aminomethyl-spiro[piperidine-4,3′-(2H)-benzo[b]furan]]",7500 nM
7,"NCc1ccc2c(c1)C1(CCN(C(=O)c3ccc(Oc4ccccc4)cc3)CC1)CO2 [Cpd 62, 1-(4-phenoxy-phenyl)carbonyl-5′-aminomethyl-spiro[piperidine-4,3′-(2H)-benzo[b]furan]]",800 nM
8,"NCc1ccc2c(c1)C1(CCN(C(=O)c3cccc(SC(F)(F)F)c3)CC1)CO2 [Cpd 63, 1-(3-trifluoromethylthio-phenyl)carbonyl-5′-aminomethyl-spiro[piperidine-4,3′-(2H)-benzo[b]furan]]",41 nM
9,"COc1ccc(-c2cccc(C(=O)N3CCC4(CC3)COc3ccc(CN)cc34)c2)cc1 [Cpd 64, 1-[3-(4-methoxy-phenyl)-phenyl]carbonyl-5′-aminomethyl-spiro[piperidine-4,3′-(2H)-benzo[b]furan]]",95 nM
10,"N#Cc1cccc(C(=O)N2CCC3(CC2)COc2ccc(CN)cc23)c1 [Cpd 66, 1-(3-cyano-phenyl)carbonyl-5′-aminomethyl-spiro[piperidine-4,3′-(2H)-benzo[b]furan]]",1900 nM
11,"CC(=O)c1ccc(C(=O)N2CCC3(CC2)COc2ccc(CN)cc23)cc1 [Cpd 67, 1-(4-methylcarbonyl-phenyl)carbonyl-5′-aminomethyl-spiro[piperidine-4,3′-(2H)-benzo[b]furan]]",4800 nM
12,"NCc1ccc2c(c1)C1(CCN(C(=O)c3ccc4c(c3)OCO4)CC1)CO2 [Cpd 68, 1-benzodioxol-5-ylcarbonyl-5′-aminomethyl-spiro[piperidine-4,3′-(2H)-benzo[b]furan]]",190 nM
13,"NCc1ccc2c(c1)C1(CCN(C(=O)c3ccc(CCl)cc3)CC1)CO2 [Cpd 69, 1-(4-chloromethyl-phenyl)carbonyl-5′-aminomethyl-spiro[piperidine-4,3′-(2H)-benzo[b]furan]]",1600 nM
14,"NCc1ccc2c(c1)C1(CCN(C(=O)c3ccc4ccccc4c3)CC1)CO2 [Cpd 70, 1-naphthalen-2-ylcarbonyl-5′-aminomethyl-spiro[piperidine-4,3′-(2H)-benzo[b]furan]]",150 nM
15,"NCc1ccc2c(c1)C1(CCN(C(=O)c3ccc(C(F)(F)F)cc3)CC1)CO2 [Cpd 71, 1-(4-trifluoromethyl-phenyl)carbonyl-5′-aminomethyl-spiro[piperidine-4,3′-(2H)-benzo[b]furan]]",910 nM
16,"CS(=O)(=O)c1cccc(C(=O)N2CCC3(CC2)COc2ccc(CN)cc23)c1 [Cpd 72, 1-(3-methylsulfonyl-phenyl)carbonyl-5′-aminomethyl-spiro[piperidine-4,3′-(2H)-benzo[b]furan]]",520 nM
17,"NCc1ccc2c(c1)C1(CCN(C(=O)c3ccc(C4CCCCC4)cc3)CC1)CO2 [Cpd 73, 1-(4-cyclohexyl-phenyl)carbonyl-5′-aminomethyl-spiro[piperidine-4,3′-(2H)-benzo[b]furan]]",2500 nM
18,"NCc1ccc2c(c1)C1(CCN(C(=O)c3ccc(F)c(C(F)(F)F)c3)CC1)CO2 [Cpd 74, 1-(3-trifluoromethyl-4-fluoro-phenyl)carbonyl-5′-aminomethyl-spiro[piperidine-4,3′-(2H)-benzo[b]furan]]",160 nM

# Second part, the compound after the results:
row,IC50,Compound
1,470 nM,"NCc1ccc2c(c1)C1(CCN(C(=O)c3ccc(Cc4ccccc4)cc3)CC1)CO2 [Cpd 75, 1-(4-benzyl-phenyl)carbonyl-5′-aminomethyl-spiro[piperidine-4,3′-(2H)-benzo[b]furan]]"
2,420 nM,"NCc1ccc2c(c1)C1(CCN(C(=O)c3ccc(OCc4ccccc4)cc3)CC1)CO2 [Cpd 76, 1-(4-benzyloxy-phenyl)carbonyl-5′-aminomethyl-spiro[piperidine-4,3′-(2H)-benzo[b]furan]]"
3,100 nM,"NCc1ccc2c(c1)C1(CCN(C(=O)c3ccc(/C=C\c4ccccc4)o3)CC1)CO2 [Cpd 77, (Z)-1-(5-phenylethenyl-furan-2-yl)carbonyl-5′-aminomethyl-spiro[piperidine-4,3′-(2H)-benzo[b]furan]]"
4,1400 nM,"NCc1ccc2c(c1)C1(CCN(C(=O)Cc3ccccc3)CC1)CO2 [Cpd 78, 1-benzylcarbonyl-5′-aminomethyl-spiro[piperidine-4,3′-(2H)-benzo[b]furan]]"
5,1400 nM,"NCc1ccc2c(c1)C1(CCN(C(=O)CCc3ccccc3)CC1)CO2 [Cpd 79, 1-phenethylcarbonyl-5′-aminomethyl-spiro[piperidine-4,3′-(2H)-benzo[b]furan]]"
6,2700 nM,"NCc1ccc2c(c1)C1(CCN(C(=O)Cc3cccc(F)c3)CC1)CO2 [Cpd 80, 1-(3-fluoro-benzyl)carbonyl-5′-aminomethyl-spiro[piperidine-4,3′-(2H)-benzo[b]furan]]"
7,2300 nM,"NCc1ccc2c(c1)C1(CCN(C(=O)Cc3cccc(Cl)c3)CC1)CO2 [Cpd 81, 1-(3-chloro-benzyl)carbonyl-5′-aminomethyl-spiro[piperidine-4,3′-(2H)-benzo[b]furan]]"
8,1300 nM,"NCc1ccc2c(c1)C1(CCN(C(=O)Cc3ccc(F)c(F)c3)CC1)CO2 [Cpd 82, 1-(3,4-difluoro-benzyl)carbonyl-5′-aminomethyl-spiro[piperidine-4,3′-(2H)-benzo[b]furan]]"
9,4300 nM,"NCc1ccc2c(c1)C1(CCN(C(=O)CCc3cccc(Cl)c3)CC1)CO2 [Cpd 83, 1-(3-chloro-phenethyl)carbonyl-5′-aminomethyl-spiro[piperidine-4,3′-(2H)-benzo[b]furan]]"
10,1400 nM,"NCc1ccc2c(c1)C1(CCN(C(=O)Cc3ccc4ccccc4c3)CC1)CO2 [Cpd 84, 1-naphthalen-2-ylmethylcarbonyl-5′-aminomethyl-spiro[piperidine-4,3′-(2H)-benzo[b]furan]]"
11,2700 nM,"NCc1ccc2c(c1)C1(CCN(C(=O)Cc3cccc(C(F)(F)F)c3)CC1)CO2 [Cpd 85, 1-(3-trifluoromethyl-benzyl)carbonyl-5′-aminomethyl-spiro[piperidine-4,3′-(2H)-benzo[b]furan]]"
12,620 nM,"NCc1ccc2c(c1)C1(CCN(C(=O)Cc3ccc(Cl)c(Cl)c3)CC1)CO2 [Cpd 86, 1-(3,4-dichloro-benzyl)carbonyl-5′-aminomethyl-spiro[piperidine-4,3′-(2H)-benzo[b]furan]]"
13,1700 nM,"NCc1ccc2c(c1)C1(CCN(C(=O)Cc3cccc(Br)c3)CC1)CO2 [Cpd 87, 1-(3-bromo-benzyl)carbonyl-5′-aminomethyl-spiro[piperidine-4,3′-(2H)-benzo[b]furan]]"
14,26 nM,"NCc1ccc2c(c1)C1(CCN(C(=O)Cc3cccc(Oc4ccccc4)c3)CC1)CO2 [Cpd 88, 1-(3-phenoxy-benzyl)carbonyl-5′-aminomethyl-spiro[piperidine-4,3′-(2H)-benzo[b]furan]]"
15,1400 nM,"Cc1cccc(CC(=O)N2CCC3(CC2)COc2ccc(CN)cc23)c1 [Cpd 89, 1-(3-methyl-benzyl)carbonyl-5′-aminomethyl-spiro[piperidine-4,3′-(2H)-benzo[b]furan]]"
16,980 nM,"NCc1ccc2c(c1)C1(CCN(C(=O)Cc3ccc(F)cc3)CC1)CO2 [Cpd 90, 1-(4-fluoro-benzyl)carbonyl-5′-aminomethyl-spiro[piperidine-4,3′-(2H)-benzo[b]furan]]"
17,480 nM,"NCc1ccc2c(c1)C1(CCN(C(=O)Cc3ccc(Cl)cc3)CC1)CO2 [Cpd 91, 1-(4-chloro-benzyl)carbonyl-5′-aminomethyl-spiro[piperidine-4,3′-(2H)-benzo[b]furan]]"
18,490 nM,"NCc1ccc2c(c1)C1(CCN(C(=O)Cc3ccc(-c4ccccc4)cc3)CC1)CO2 [Cpd 92, 1-(4-phenyl-benzyl)carbonyl-5′-aminomethyl-spiro[piperidine-4,3′-(2H)-benzo[b]furan]]"
19,350 nM,"NCc1ccc2c(c1)C1(CCN(C(=O)Cc3ccc(Br)cc3)CC1)CO2 [Cpd 93, 1-(4-bromo-benzyl)carbonyl-5′-aminomethyl-spiro[piperidine-4,3′-(2H)-benzo[b]furan]]"
20,240 nM,"COc1ccc(CC(=O)N2CCC3(CC2)COc2ccc(CN)cc23)cc1 [Cpd 94, 1-(4-methoxy-benzyl)carbonyl-5′-aminomethyl-spiro[piperidine-4,3′-(2H)-benzo[b]furan]]"
21,3200 nM,"NCc1ccc2c(c1)C1(CCN(C(=O)Cc3cccc(Br)c3)CC1)CO2 [Cpd 95, 1-(3-bromo-benzyl)carbonyl-5′-aminomethyl-spiro[piperidine-4,3′-(2H)-benzo[b]furan]]"
22,450 nM,"NCc1ccc2c(c1)C1(CCN(C(=O)Cc3ccc(I)cc3)CC1)CO2 [Cpd 96, 1-(4-iodo-benzyl)carbonyl-5′-aminomethyl-spiro[piperidine-4,3′-(2H)-benzo[b]furan]]"
